Data published in patent US20250135038A1, “COMPOSITIONS AND METHODS FOR IMPROVED TREATMENT OF POMPE DISEASE” (Astellas Gene Therapies, Inc., priority 2022, published 2025).

System: liver transaminases (ALT, AST) and bilirubin
Test: Longitudinal monitoring of liver transaminases (ALT, AST) and bilirubin, relative to prednisolone prophylaxis
Type: in vivo, human
Text: Abbreviations: L, liter; U/L, units per liter; […], upper limit of normal.
Liver transaminases and bilirubin were also monitored over time for patients 2002, 2003, and 2009 (FIG. 11-13).

Compound	Prophylaxis of liver syndromes associated with GAA gene therapy (combination of the viral vector and an anti-transaminitis agent (e.g., prednisolone), conclusion of Example 1)	Response of the rise in transaminases to re-initiation of corticosteroid treatment (participant 2001, after AAV vector 3×10^13 vg/kg)	Response of transaminitis to steroid schedule (participant 2003, after AAV vector 6×10^13 vg/kg)	Response of transaminitis to steroid schedule (participant 2009, after AAV vector 6×10^13 vg/kg)	Liver function parameters (Patient 2002 (3×10^13 vg/kg), reduced dose of prophylactic prednisone, throughout steroid tapering and >1 year follow up)
C[C@]12C=CC(=O)C=C1CC[C@@H]1[C@@H]2[C@@H](O)C[C@@]2(C)[C@H]1CC[C@]2(O)C(=O)CO [prednisolone]	can serve as a prophylactic treatment for liver syndromes	responded well	responsive to a slowing in the steroid tapering schedule and a small increment in steroid dose	responsive to a slowing in the steroid tapering schedule	
C[C@]12C=CC(=O)C=C1CC[C@@H]1[C@@H]2C(=O)C[C@@]2(C)[C@H]1CC[C@]2(O)C(=O)CO [prednisone]					remained within the normal range
